The text below walks through data of patent US9980965B2, “Treatment of autoimmune disease” (MingSight Pharmaceuticals, Inc., priority 2014, dated 2018).

Where two headings read alike, the source gives them in different places. Marks after values point to notes of the source that are not given here. Bounds are passed on as bounds.

One may read the IC50 as the midpoint of a concentration-inhibition curve. What is called Ki is a measure of affinity in units of concentration, obtained from inhibition or displacement.

The target in one data set is T1, Human PKC mu (Homo sapiens, UniProt Q15139).
T1 sequence (Q15139 1-912): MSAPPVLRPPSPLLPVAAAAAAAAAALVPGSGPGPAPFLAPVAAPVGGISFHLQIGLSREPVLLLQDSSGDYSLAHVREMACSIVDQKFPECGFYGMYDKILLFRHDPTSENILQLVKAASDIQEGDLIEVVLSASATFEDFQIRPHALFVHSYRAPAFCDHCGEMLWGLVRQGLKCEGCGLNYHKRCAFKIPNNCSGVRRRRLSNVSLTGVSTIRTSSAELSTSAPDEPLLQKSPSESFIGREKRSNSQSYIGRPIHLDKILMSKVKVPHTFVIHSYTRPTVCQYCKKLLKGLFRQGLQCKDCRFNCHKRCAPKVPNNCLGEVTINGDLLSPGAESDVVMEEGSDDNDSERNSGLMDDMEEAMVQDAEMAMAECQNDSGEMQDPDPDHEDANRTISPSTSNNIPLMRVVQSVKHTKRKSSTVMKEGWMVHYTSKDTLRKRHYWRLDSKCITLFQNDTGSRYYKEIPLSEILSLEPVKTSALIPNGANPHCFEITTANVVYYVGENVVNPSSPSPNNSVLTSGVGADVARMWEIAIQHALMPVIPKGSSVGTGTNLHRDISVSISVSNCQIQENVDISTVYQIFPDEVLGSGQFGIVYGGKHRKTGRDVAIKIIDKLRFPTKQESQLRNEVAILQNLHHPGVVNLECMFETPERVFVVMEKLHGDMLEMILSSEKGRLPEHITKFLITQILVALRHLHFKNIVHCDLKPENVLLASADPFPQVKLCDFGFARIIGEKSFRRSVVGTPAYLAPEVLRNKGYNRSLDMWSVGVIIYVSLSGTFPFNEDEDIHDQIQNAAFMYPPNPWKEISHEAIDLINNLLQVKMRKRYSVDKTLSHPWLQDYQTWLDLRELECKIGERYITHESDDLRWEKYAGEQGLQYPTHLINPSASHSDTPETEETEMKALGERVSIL
As to the kind of experiment: In vitro PKC inhibition, PKC mu. Format: biochemical. The text has this:
(§1) The methods for these determinations have been described (Grant, et al. 2010, Eur J Pharmacol. 627:16-25).

The next data set concerns pSHP2 (PKCβ cell assay). As to the kind of experiment: pSHP2 (PKCβ cell assay). In kind it is cell-based.
Excerpt: as §1

A further data set addresses Human PKC betaI (Homo sapiens, UniProt P05771). Put plainly: In vitro PKC inhibition, PKC betaI. Format: biochemical.
A further data set concerns the target Human PKC betaII (Homo sapiens, UniProt P05771). Put plainly: In vitro PKC inhibition, PKC betaII. In kind it is biochemical.
For the next data set, the target named is Human PKC gamma (Homo sapiens, UniProt P05129). Put plainly: In vitro PKC inhibition, PKC gamma. Format: biochemical.
Excerpt: as §1

In another data set the target is Human PKC delta (Homo sapiens, UniProt Q05655). As to the kind of experiment: In vitro PKC inhibition, PKC delta. Format: biochemical.
Sequence of Human PKC delta (Q05655 whole entry): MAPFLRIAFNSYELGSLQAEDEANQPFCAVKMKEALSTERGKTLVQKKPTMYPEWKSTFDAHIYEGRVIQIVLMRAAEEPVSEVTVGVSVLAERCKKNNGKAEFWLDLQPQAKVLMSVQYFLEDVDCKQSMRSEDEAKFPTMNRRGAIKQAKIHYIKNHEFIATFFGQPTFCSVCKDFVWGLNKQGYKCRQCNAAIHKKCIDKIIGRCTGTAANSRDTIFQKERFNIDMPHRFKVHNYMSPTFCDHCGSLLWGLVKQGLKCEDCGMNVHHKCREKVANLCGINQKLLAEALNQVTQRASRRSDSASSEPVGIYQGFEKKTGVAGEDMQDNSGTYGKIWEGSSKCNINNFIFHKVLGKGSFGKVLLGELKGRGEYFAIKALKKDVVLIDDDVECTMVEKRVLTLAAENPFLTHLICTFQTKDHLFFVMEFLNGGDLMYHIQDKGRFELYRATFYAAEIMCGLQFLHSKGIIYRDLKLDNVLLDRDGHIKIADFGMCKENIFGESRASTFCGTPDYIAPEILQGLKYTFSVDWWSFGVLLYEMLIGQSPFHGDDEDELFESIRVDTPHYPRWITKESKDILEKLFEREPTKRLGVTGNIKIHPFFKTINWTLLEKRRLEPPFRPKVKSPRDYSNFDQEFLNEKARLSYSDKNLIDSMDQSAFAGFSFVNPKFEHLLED
Excerpt: as §1

A further data set has as its target T2, Human PKC iota (Homo sapiens, UniProt P41743).
T2 sequence (P41743 1-596): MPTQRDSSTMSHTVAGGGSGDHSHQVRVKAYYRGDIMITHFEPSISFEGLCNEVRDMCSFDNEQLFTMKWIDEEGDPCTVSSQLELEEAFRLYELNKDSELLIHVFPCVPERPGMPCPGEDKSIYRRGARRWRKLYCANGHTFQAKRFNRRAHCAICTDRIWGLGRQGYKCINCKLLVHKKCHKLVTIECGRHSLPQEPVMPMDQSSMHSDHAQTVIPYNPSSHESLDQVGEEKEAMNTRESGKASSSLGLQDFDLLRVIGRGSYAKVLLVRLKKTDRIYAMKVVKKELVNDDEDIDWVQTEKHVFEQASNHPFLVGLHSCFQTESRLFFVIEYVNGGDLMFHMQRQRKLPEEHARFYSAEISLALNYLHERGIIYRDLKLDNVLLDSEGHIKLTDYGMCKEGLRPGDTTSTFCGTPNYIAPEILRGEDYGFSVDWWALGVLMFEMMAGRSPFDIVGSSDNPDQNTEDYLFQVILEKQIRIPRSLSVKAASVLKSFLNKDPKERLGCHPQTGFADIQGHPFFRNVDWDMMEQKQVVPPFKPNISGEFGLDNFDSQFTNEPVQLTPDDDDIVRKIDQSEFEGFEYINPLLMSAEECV
As to the kind of experiment: In vitro PKC inhibition, PKC iota. Format: biochemical.
Excerpt: as §1

Data set [1] relates to EAE induced by MBP69-88/CFA immunization and pertussis toxin injection. In kind it is in vivo, Lewis rats. The conditions noted are these: for Median day of onset (all rats) / Mean day of onset +/− SEM (sick rats) / EAE incidence (%): p.o.; for Median day of onset (all rats): vehicle 9.0; for Mean day of onset +/− SEM (sick rats): vehicle 9.3 +/− 0.6; for EAE incidence (%): vehicle 100.0%.

Data set [2] can be described thus: Separate pharmacokinetics experiments in mice. In kind it is in vivo. Particulars: 60 mg/kg dose, oral.
Where [3] appears, read: 15 and 30 mg/kg BID, compared to the vehicle control group.

Sequence of Human PKC betaII (P05771 1-673 isoform P05771-2): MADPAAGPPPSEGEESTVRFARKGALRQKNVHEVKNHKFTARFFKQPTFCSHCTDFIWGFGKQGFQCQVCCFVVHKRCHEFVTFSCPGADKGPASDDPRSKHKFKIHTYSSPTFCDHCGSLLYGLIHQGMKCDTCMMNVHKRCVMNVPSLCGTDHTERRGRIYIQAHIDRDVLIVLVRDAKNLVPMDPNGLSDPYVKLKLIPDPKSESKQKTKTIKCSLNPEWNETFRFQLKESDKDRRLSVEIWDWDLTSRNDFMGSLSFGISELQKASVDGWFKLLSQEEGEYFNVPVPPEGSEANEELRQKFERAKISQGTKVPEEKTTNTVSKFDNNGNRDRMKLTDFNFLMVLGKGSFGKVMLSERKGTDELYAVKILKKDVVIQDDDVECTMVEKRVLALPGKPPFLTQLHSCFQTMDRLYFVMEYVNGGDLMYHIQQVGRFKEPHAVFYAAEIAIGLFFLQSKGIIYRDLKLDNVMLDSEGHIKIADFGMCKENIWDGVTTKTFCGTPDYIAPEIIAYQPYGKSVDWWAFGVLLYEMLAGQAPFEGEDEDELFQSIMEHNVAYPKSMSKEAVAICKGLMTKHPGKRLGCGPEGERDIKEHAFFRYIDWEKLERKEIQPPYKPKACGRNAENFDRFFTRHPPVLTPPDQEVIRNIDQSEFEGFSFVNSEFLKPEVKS
Sequence of Human PKC betaI (P05771 whole entry): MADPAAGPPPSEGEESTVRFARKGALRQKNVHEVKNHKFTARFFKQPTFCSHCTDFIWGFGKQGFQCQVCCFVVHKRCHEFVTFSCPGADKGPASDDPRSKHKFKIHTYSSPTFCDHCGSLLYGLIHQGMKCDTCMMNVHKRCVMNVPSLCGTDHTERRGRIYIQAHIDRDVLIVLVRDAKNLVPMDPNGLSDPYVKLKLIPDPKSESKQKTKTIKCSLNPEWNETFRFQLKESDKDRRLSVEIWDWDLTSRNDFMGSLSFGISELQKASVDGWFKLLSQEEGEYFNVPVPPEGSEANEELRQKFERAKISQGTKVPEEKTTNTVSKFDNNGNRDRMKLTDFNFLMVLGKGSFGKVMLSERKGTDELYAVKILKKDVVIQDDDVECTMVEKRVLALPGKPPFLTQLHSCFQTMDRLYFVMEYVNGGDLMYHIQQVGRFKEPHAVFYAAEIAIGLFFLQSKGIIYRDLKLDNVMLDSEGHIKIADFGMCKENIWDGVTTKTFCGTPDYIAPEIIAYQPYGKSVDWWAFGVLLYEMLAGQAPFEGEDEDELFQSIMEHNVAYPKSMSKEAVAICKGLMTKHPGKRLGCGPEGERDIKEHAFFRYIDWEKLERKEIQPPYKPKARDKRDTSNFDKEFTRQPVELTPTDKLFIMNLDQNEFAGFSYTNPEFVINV

With `Cc1ncc(F)c(Nc2n[nH]c3c2CN(C(=O)N2C[C@@H](C)N(CC4CCOCC4)C[C@@H]2C)C3(C)C)n1` [Compound A, 5-{[(2S,5R)-2,5-Dimethyl-4-(tetrahydro-2H-pyran-4-ylmethyl)piperazin-1-yl]carbonyl}-N-(5-fluoro-2-methylpyrimidin-4-yl)-6,6-dimethyl-1,4,5,6-tetrahydropyrrolo[3,4-c]pyrazol-3-amine], the IC50 against Human PKC mu is 314 nM; in the data set with pSHP2 (PKCβ cell assay) it was 9.8 nM; on Human PKC betaI, 8.1 nM; on Human PKC betaII, 7.6 nM; against Human PKC gamma it was 57.5 nM; against Human PKC delta, > 1000 nM. Besides, the 50% inhibitory concentration (IC50) against Human PKC iota is > 1000 nM. The Ki on Human PKC betaII (recombinant PKC beta (betaII in Table 1)) turned out to be 5.3 nM. Besides, the “inhibition of PKC delta (in words)” value against Human PKC delta is “does not significantly inhibit”. Further, the “Median day of onset (all rats)” value was determined as 9.0 days in [1] (7.5 mg/kg, BID) and 8.0 days in data set [1] (15 mg/kg, BID). For the same compound, the “Mean day of onset +/− SEM (sick rats)” value in [1] (7.5 mg/kg, BID) stood at 9.0 ± 0.5 days; in data set [1] (15 mg/kg, BID) it was 8.5 ± 0.4 days; in data set [1] (30 mg/kg, BID), 9.0 ± 0.9 days. Further, the “EAE incidence (%)” value in data set [1] (7.5 mg/kg, BID) came to 100.0%; in data set [1] (15 mg/kg, BID) it was 100.0%; in data set [1] (30 mg/kg, BID, p < 0.05 vs. vehicle) it was 50.0%*. In data set [1] (7.5, 15 and 30 mg/kg BID), the “clinical score (EAE)” value is given as “dose-dependent decrease”. Moreover, in data set [1] (setting [3]), the “end severity (FIG. 5)” value is recorded as “significantly reduced”. The “maximum EAE severity (FIG. 5)” value in data set [1] (setting [3]) is given as “significantly reduced”. Further, in data set [1] (highest dose (30 mg/kg BID)), the “EAE incidence (in words)” value is on record as “significantly reduced”. The “efficacy compared with fingolimod” value in data set [1] (highest dose employed (30 mg/kg BID) vs. FTY720 0.5 mg/kg QD) was “appeared superior to fingolimod”. Besides, the exposure in mice result in data set [2] is “unexpectedly low and insufficient exposure”.
Take `CCCCCCCCc1ccc(CCC(N)(CO)CO)cc1` [FTY720, fingolimod, reference compound]: in data set [1] (0.5 mg/kg, QD), the “Median day of onset (all rats)” value amounted to 8.0 days and the “Mean day of onset +/− SEM (sick rats)” value came out at 8.0 ± 0.3 days.
